Experiments:
KURAMOCHI = experiment: drug sensitivity score (DSS2) on cancer cell count; higher = more sensitive; extreme values may be limits of the assay; settings: 72 h
Summary of the method: (§1)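 Ovarian cancer cells were grown alone or in 1:1 direct co-culture with lung or skin fibroblasts. They were plated onto 384-well plates pre-spotted acoustically with 528 approved and investigational compounds at 5 concentrations, then treated for 72 h. Cells were fixed, immunostained for CK8/18 with Hoechst, and imaged at 10× (4 fields) to count cancer cells. A drug sensitivity score (DSS2) was derived in Breeze from 4-parameter logistic fits, with screen quality checked by Z'.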

OVCAR8 = experiment: as above; settings: 72 h
Summary of the method: as §1

[1] = co-cultured fibroblast: BJHTERT
[2] = co-cultured fibroblast: none (monoculture)

| Compound | drug sensitivity score (KURAMOCHI; [1]) [DSS] | drug sensitivity score (KURAMOCHI; co-cultured fibroblast: WI38) [DSS] | drug sensitivity score (KURAMOCHI; [2]) [DSS] | drug sensitivity score (OVCAR8; [1]) [DSS] | drug sensitivity score (OVCAR8; co-cultured fibroblast: WI38) [DSS] | drug sensitivity score (OVCAR8; [2]) [DSS] |
| --- | --- | --- | --- | --- | --- | --- |
| C=CCc1cccc(/C=N/NC(=O)CN2CCN(Cc3ccccc3)CC2)c1O [PAC-1] | 2.7 | 3.3 | 4.9 | 7.4 | 1.5 | 4.9 |
| C[C@H]1O[C@@H](O[C@H]2[C@@H](O)C[C@H](O[C@H]3[C@@H](O)C[C@H](O[C@H]4CC[C@@]5(C)[C@H](CC[C@@H]6[C@@H]5C[C@@H](O)[C@]5(C)[C@@H](C7=CC(=O)OC7)CC[C@]65O)C4)O[C@@H]3C)O[C@@H]2C)C[C@H](O)[C@@H]1O [Digoxin] | 8.6 | 10.9 | 14.2 | 14.9 | 11.6 | 12.7 |
| O=C(O)CCCCC(CCSCc1ccccc1)SCc1ccccc1 (stereo not drawn) [CPI-613] | 0 | 0 | 0 | 0 | 1.3 | 0 |
| Cn1nccc1Nc1nccc(-c2ccn([C@H](CO)c3ccc(Cl)c(F)c3)c(=O)c2)n1 [Ravoxertinib] | 3.6 | 3.2 | 3.3 | 2.2 | 4.3 | 4.9 |
| CC1=C(/C=C/C(C)=C/C=C/C(C)=C/C(=O)O)C(C)(C)CCC1 [Tretinoin] | 0 | 0 | 8.2 | 0 | 0 | 0 |
| Cc1cccc(-c2nn3c(c2-c2ccnc4ccc(C(N)=O)cc24)CCC3)n1 [Galunisertib] | 3.4 | 0 | 13.8 | 0 | 0 | 0 |
| Cc1c(C(=O)Nc2ccc(N3C[C@@H](C)O[C@@H](C)C3)nc2)cccc1-c1ccc(OC(F)(F)F)cc1 [Sonidegib] | 0 | 0 | 0 | 0.6 | 0 | 0.6 |
| Nc1ccccc1NC(=O)c1ccc(CNc2nccc(-c3cccnc3)n2)cc1 [Mocetinostat] | 10.4 | 13.9 | 13.7 | 14 | 19.3 | 21.7 |
| O[C@H]1CC[C@H](Nc2ncc3nc(Nc4c(F)cc(F)cc4F)n([C@H]4CCOC4)c3n2)CC1 [Tanzisertib] | 2 | 0 | 0.2 | 1.4 | 0 | 1 |
| CC(=O)c1cnc2ccc(-c3cc(Cl)c(O)c(Cl)c3)nc2c1N[C@H]1CC[C@H](CN(C)C)CC1 [OTS167] | 14.9 | 13.5 | 11.7 | 20.6 | 16.1 | 19.2 |
| CC(=O)c1c(C)c2cnc(Nc3ccc(N4CCNCC4)cn3)nc2n(C2CCCC2)c1=O [Palbociclib] | 6.2 | 7.5 | 13.9 | 6.6 | 0.3 | 3.9 |
| CS(=O)(=O)N1CCN(Cc2cc3nc(-c4cccc5[nH]ncc45)nc(N4CCOCC4)c3s2)CC1 [Pictilisib] | 15 | 12.1 | 18.2 | 6.7 | 5.4 | 7.9 |
| CNC(=O)c1ccccc1Sc1ccc2c(/C=C/c3ccccn3)n[nH]c2c1 [Axitinib] | 8.7 | 8.4 | 7 | 7.4 | 5.6 | 6.7 |
| Cc1noc2c1-c1ccccc1C(c1ccc(Cl)cc1)=N[C@H]2CC(N)=O [CPI-0610] | 0 | 8.5 | 5.7 | 10.9 | 6.5 | 13.8 |
| C[C@]12C=CC(=O)C=C1CC[C@@H]1[C@@H]2[C@@H](O)C[C@@]2(C)[C@H]1CC[C@]2(O)C(=O)CO [Prednisolone] | 0 | 0 | 0 | 0.3 | 0 | 0 |
| Cc1cc(Nc2nc(N[C@@H](C)c3ncc(F)cn3)ncc2Cl)[nH]n1 [AZD1480] | 0.1 | 0.7 | 0 | 0.4 | 0 | 0.4 |
| C[C@@H](C(=O)O)c1ccc(-c2ccccc2)c(F)c1 [Tarenflurbil] | 0 | 0 | 0 | 0.7 | 0 | 0 |
| c1cc(CN2CCCNCCNCCCNCC2)ccc1CN1CCCNCCNCCCNCC1 [Plerixafor] | 0 | 0 | 0.6 | 0.5 | 0 | 0.3 |
| CC(=O)O[C@H]1C(=O)[C@@]2(C)[C@H]([C@H](OC(=O)c3ccccc3)[C@]3(O)C[C@H](OC(=O)[C@H](O)[C@@H](NC(=O)c4ccccc4)c4ccccc4)C(C)=C1C3(C)C)[C@]1(OC(C)=O)CO[C@@H]1C[C@@H]2O [Paclitaxel] | 23.2 | 24.5 | 16.1 | 29.6 | 30.9 | 24 |

| Compound | drug sensitivity score (KURAMOCHI; [1]) [DSS] | drug sensitivity score (KURAMOCHI; co-cultured fibroblast: WI38) [DSS] | drug sensitivity score (KURAMOCHI; [2]) [DSS] | drug sensitivity score (OVCAR8; [1]) [DSS] | drug sensitivity score (OVCAR8; co-cultured fibroblast: WI38) [DSS] | drug sensitivity score (OVCAR8; [2]) [DSS] |
| --- | --- | --- | --- | --- | --- | --- |
| CC1=C2C[C@H]3[C@@H](CC[C@@H]4C[C@H](NS(C)(=O)=O)CC[C@@]43C)[C@@H]2CC[C@@]2(C1)O[C@@H]1C[C@H](C)CN[C@H]1[C@H]2C [Saridegib] | 3.1 | 3.9 | 4.2 | 0 | 0 | 0 |
| O=C1CCc2c(Oc3ccc4c(c3)[C@@H]3[C@H](O4)[C@H]3c3nc4cc(C(F)(F)F)ccc4[nH]3)ccnc2N1 [BGB-283] | 6.9 | 5.3 | 4.7 | 3.7 | 13.4 | 5.2 |
| O=C(O)CC[C@H]1CC[C@@](c2cc(F)ccc2F)(S(=O)(=O)c2ccc(Cl)cc2)CC1 [MK-0752] | 0 | 0 | 0 | 3.7 | 0 | 0 |
| CO[C@@H]1[C@H](N(C)C(=O)c2ccccc2)C[C@H]2O[C@]1(C)n1c3ccccc3c3c4c(c5c6ccccc6n2c5c31)C(=O)NC4 [Midostaurin] | 16.2 | 14.8 | 11.6 | 13.3 | 16.5 | 13 |
| Cc1cc([C@@H](C)Nc2ccccc2C(=O)O)c2nc(N3CCOCC3)cc(=O)n2c1 [AZD-6482] | 6.1 | 1.5 | 4.4 | 1.2 | 0 | 0 |
| CNC(=O)c1nn(C)c2c1C(C)(C)Cc1cnc(Nc3ccc(N4CCN(C)CC4)cc3)nc1-2 [Milciclib] | 11.2 | 9.8 | 10 | 13.9 | 12.3 | 11.4 |
| COc1cc2c(N3CCN(C(=O)Nc4ccc(OC(C)C)cc4)CC3)ncnc2cc1OCCCN1CCCCC1 [Tandutinib] | 0 | 0 | 0 | 0 | 0 | 0 |
| Nc1ncn([C@H]2C[C@H](O)[C@@H](CO)O2)c(=O)n1 [Decitabine] | 0 | 1.7 | 0.3 | 6.9 | 11.4 | 4.8 |
| Cc1cc(Nc2cc(CN3CCOCC3)c3nc(C)c(Cc4ccc(Cl)cc4F)n3n2)n[nH]1 [Gandotinib] | 7.6 | 3.7 | 4 | 9 | 12.1 | 9.7 |
| Nc1ncn([C@@H]2O[C@H](CO)[C@@H](O)[C@H]2O)c(=O)n1 [Azacitidine] | 2.8 | 2.6 | 9.3 | 3.9 | 1.5 | 8.9 |
| Nc1nc(F)nc2c1ncn2[C@@H]1O[C@H](CO)[C@@H](O)[C@@H]1O [Fludarabine] | 0.3 | 4.5 | 0 | 8 | 8.5 | 13.4 |
| CC(=O)Nc1cccc(-n2c(=O)n(C3CC3)c(=O)c3c(Nc4ccc(I)cc4F)n(C)c(=O)c(C)c32)c1 [Trametinib] | 9 | 7.4 | 7.6 | 10.7 | 3.9 | 13.5 |
| Cc1nc(Nc2n[nH]c3c2CN(C(=O)N[C@H](CN(C)C)c2ccccc2)C3(C)C)c2sccc2n1 | 21 | 24.6 | 19.4 | 20.8 | 9.4 | 15.5 |
| CN1CC[C@H](c2c(O)cc(O)c3c(=O)cc(-c4ccccc4Cl)oc23)[C@H](O)C1 [Alvocidib] | 19.3 | 20.2 | 20.9 | 20.8 | 21.6 | 21 |
| CC(C)[C@H]1C(=O)N[C@@H](CCCNC(=N)N)C(=O)NCC(=O)N[C@@H](CC(=O)O)C(=O)N[C@H](Cc2ccccc2)C(=O)N1C [Cilengitide] | 5.8 | 3.3 | 7.4 | 9.6 | 16.3 | 13.2 |
| CN(C)Cc1c(C(=O)NCCOc2ccc(C(=O)NO)cc2)oc2ccccc12 [Abexinostat] | 17.2 | 20.6 | 15.7 | 25.3 | 18.5 | 27.9 |
| Nc1cc(F)ccc1NC(=O)c1ccc(CNC(=O)/C=C/c2cccnc2)cc1 [Tucidinostat] | 7.6 | 11.2 | 9.7 | 8 | 4.4 | 11.8 |
| CN1CC[C@@H](NC(=O)Nc2ccc(C#N)cc2)C[C@@H]1c1nc2ccccc2[nH]1 [Glasdegib] | 0.5 | 1.1 | 0 | 0 | 0 | 0 |
| Cc1ncc(-c2ccnc(Nc3ccc(S(C)(=O)=O)cc3)n2)n1C(C)C [AZD-5438] | 17.8 | 22.5 | 17.7 | 19 | 19.2 | 17.2 |
